Assay results taken from patent US12485102B2, “Methods and compositions for treating cancer” (The Wistar Institute of Anatomy and Biology, priority 2017, dated 2025).

Legend:
[1] = tested on: CD8+ T cells from OT-1 mice; test: Phenotype, gene expression, fatty acid uptake and effector functions of drug-treated OT-1 CD8+ T cells in vitro
Source text: We initially tested stimulation of OT-1 T cells by the polyclonal activators anti-CD3 and anti-CD28 or by their cognate peptide [sequence] and IL-2.

[2] = tested on: B16OVA tumor cells; test: Adoptive transfer of drug-pre-treated OT-1 cells into B16OVA tumor-bearing mice: tumor progression; details: cells treated with 100 μM of FFA, last 2 days; n=5/group
Experimental: The cells were then treated for 2 days with 50 μM fenofibric acid or DMSO. Cells were injected i.v. into C57B1/6 recipient mice that had been injected 5 days earlier with B16OVA tumor cells. Tumor sizes were monitored. Tumor weights were measured at necropsy.
Mice were injected with 10^5 B16.F10 melanoma cells that were transduced to express the immunodominant epitope of ovalbumin [sequence]
Tumor growth in the mouse models was monitored for up to 24 days.
To assess how metabolic reprogramming affects tumor antigen-specific CD8+ T cells within a TME, mice were challenged with B16OVA tumor cells. […] Tumor progression was monitored and once tumors became large, splenocytes and tumor-infiltrating cells were isolated and characterized.
In another experiment, we treated cells with 100 μM of FFA (or as a control DMSO) for the last 2 days of culture. […] We analyzed tumor weights and splenocytes and tumor infiltrating lymphocytes (TILs) at necropsy for recovery, phenotypes, and functions of the donor OT-1 cells.

[3] = tested on: CD8+ T cells from OT-1 mice; test: Cell recovery and blast formation of in vitro stimulated, drug-treated OT-1 CD8+ T cells; assay type: cell-based
[4] = tested on: CD8+ T cells from OT-1 mice; test: Seahorse oxygen consumption rates (OXPHOS) of drug-treated OT-1 CD8+ T cells; assay type: cell-based; details: 10 or 100 μM, last 2 days of culture; FIG. 10
Experimental: They were then analyzed for oxygen consumption rates (OCR) by Seahorse (left graph). In addition, after culture all live cells, CD8+ cells and activated CD44+CD8+ cells were counted to assess potential toxicity.
Seahorse experiments were conducted to further characterize the effects of FF on CD8+ T cell metabolism.
Cells were treated with 10 or 100 μM of FFA or FFP for the last 2 days of culture. […] See, FIG. 9. Both drugs increased OXPHOS as shown by increased oxygen consumption rates.

CC(C)OC(=O)C(C)(C)Oc1ccc(C(=O)c2ccc(Cl)cc2)cc1 [FF, fenofibrate]
T cell proliferation in response to IL-2 ([1]; FF-treated cells): no effect

CC(C)(Oc1ccc(C(=O)c2ccc(Cl)cc2)cc1)C(=O)O [FFA, fenofibric acid]
mice that developed progressing tumors [2]: 2 mice
mice with only small tumors that failed to grow [2]: 3 mice
toxicity in the in vitro or ex vivo pretreatment of the T cells ([3]; compared with fenofibrate, FIG. 8): reduced toxicity

C[C@H](NC(=O)C(C)(C)Oc1ccc(C(=O)c2ccc(Cl)cc2)cc1)C(=O)N[C@@H](CCC(=O)O)C(=O)O [FFP, (S)-2-((S)-2-(2-(4-(4-chlorobenzoyl)phenoxy)-2-methylpropanamido)propanamido)pentanedioic acid]
oxygen consumption rates (OXPHOS) [4]: increased
fatty acid uptake ([1]; 10 or 100 μM, last 2 days of culture): more pronounced
blast formation ([3]; 100 μM, last 2 days of culture, FIG. 9): reduced blast formation
